Experimental data published in patent US20040176387A1, “Method of treating peripheral vascular diseases, peripheral neuropathies, and autonomic neuropathies” (Pfizer Inc, priority 2000, published 2004).

Experiments:
Format in all cases: in vivo, human
[1] = Sildenafil treatment of diabetic foot ulcer in patients (case reports)
Description: During the treatment of-the erectile dysfunction it was noted that the foot ulcer was healing. This foot ulcer began approximately two years prior and the patient had been through vascular studies, had seen vascular surgeons, podiatrists, and had been in wound care clinics with minimal results at best. They had also been hospitalized for approximately a month on IV antibiotics, etc. and the threat was very real that the patient was going to require a below the knee amputation. The ulcer would appear to be healing at times only to reoccur to its pretreatment size and depth.

[2] = system: onychiomycosis (fungal infection of the nailbed); test: Sildenafil treatment of onychiomycosis (fungal infection of the nailbed) (case report)
Description: In regards to other uses of cycli guanosine 3′,5′-monophosphate type five (cGMP PDE5) inhibitors, including the compound sildenafil, for which we have shown is effective in the treatment of diabetic foot ulcers, it is also within the concept of the present invention to treat other peripheral vascular diseases such as Raynaud's Phenomenon, including CREST syndrome, autoimmune diseases such as systemic lupus erythematosis, rheumatoid diseases and diabetic retinopathies. The treatment of the present invention would also be beneficial in peripheral and autonomic neuropathies or any other disease entity that results from small vessel disease and directly large vessel disease. […] The patient in this case was requesting treatment for erectile dysfunction and again the inventor discovered this unexpected beneficial result. The inventor has observed such results in varied diseases which have the common element of peripheral vascular disease or peripheral neuropathy. The beneficial effect of the method is believed to be due to increase vascular flow of the small vessels which aided the body in healing itself. Patient #4 suffered from erectile dysfunction. They also suffered from onychiomycosis (fungal infection of the nailbed). They were placed on sildenafil treatment taking one 50 mg pill on an as-needed basis.

[3] = Sildenafil treatment of erectile dysfunction in patients (case reports)
Description: Patient #2 was suffering from chronic changes of both lower extremities secondary to peripheral vascular disease and diabetes mellitus. […] Patient #4 suffered from erectile dysfunction. They also suffered from onychiomycosis (fungal infection of the nailbed). They were placed on sildenafil treatment taking one 50 mg pill on an as-needed basis.

[4] = Sildenafil treatment of chronic lower extremity changes secondary to peripheral vascular disease (case report); conditions: Patient #2; diabetes mellitus
Description: Patient #2 was suffering from chronic changes of both lower extremities secondary to peripheral vascular disease and diabetes mellitus.

[5] = Patient #4, one 50 mg pill on an as-needed basis

In the case of `CCCc1nn(C)c2c(=O)[nH]c(-c3cc(S(=O)(=O)N4CCN(C)CC4)ccc3OCC)nc12` [sildenafil, 5-[2-ethoxy-5-(4-methylpiperazin 1-ylsulphonyl)-phenyl]-1,6-dihydro-1-methyl-3-propylpyrazolo [4,3-d] pyrimidine-7-one], the “diabetic foot ulcer size after sildenafil treatment began” value ([1]; Patient #1, insulin dependent diabetic, sildenafil taken for erectile dysfunction, before daily dosing) is reported as “the ulcer was decreasing in the size”, the “resolution of diabetic foot ulcer” value ([1]; Patient #1, 50 mg of sildenafil once a day, ulcer began approximately two years prior) is reported as “complete resolution of the diabetic food ulcer in one month” and the “reoccurrence of diabetic foot ulcer” value ([1]; Patient #1, continued on 50 mg once a day for the past two years) is reported as “without reoccurrence”. For the same compound, the “effectiveness in the treatment of foot ulcers related to diabetes” value ([1]; general statement, diabetic patients) was “very effective”, the “fungal infection (onychiomycosis)” value [2, 5] was “cured” and the “onychiomycosis, particularly of the lower extremity” value ([2]; treated exclusively with sildenafil, without antifungal medication) was “resolved completely”. The erectile dysfunction ([3]; Patient #2, diabetes mellitus and peripheral vascular disease) was “significantly improve”, the erectile dysfunction [3, 5] was “improved” and the “chronic changes of both lower extremities secondary to peripheral vascular disease” value [4] was “significantly improved or resolved completely”.
